By IC50 is commonly meant the midpoint of a concentration-inhibition curve.

Results on 20 molecules are retold here after paper PMC6930638, “The Masked Polar Group Incorporation (MPGI) Strategy in Drug Design: Effects of Nitrogen Substitutions on Combretastatin and Isocombretastatin Tubulin Inhibitors” (Molecules, 2019).

SMILES strings stand for the structures. Like-named read-outs stand apart in the source and are kept apart here.

Data set [1] concerns HeLa cervix epithelioid carcinoma. The data set can be described thus: MTT cell antiproliferative assay, HeLa. The format is cell-based. The note with it: Homo sapiens, 72 h. As for the experimental part:
(§1) The in vitro antiproliferative activity of the synthesized compounds was evaluated by a colorimetric reaction, using the MTT reagent. They were tested against three different human tumor cell lines: HeLa cervix epithelioid carcinoma, HT-29 colon adenocarcinoma, and MCF-7 breast adenocarcinoma. […] Moving the alkylamino substituent from a para to a meta position with respect to the bridge results in potency reduction, except for the phenstatin analogue 1f. However, the introduction of a nitrogen atom to form 2-dimethylaminopyridine derivatives entails a loss of activity, both for phenstatin analogues (1b, 2b), while for isocombretastatins, it only involves a 2–3 times potency decrease (3b). For combretastatins, it implies an improvement in the cytotoxicity values down to tenths of nanomolar (8b). […] On the other hand, the best 2-dimethylaminopyridine was combretastatin 8b. All ammonium salts derivatives were not cytotoxic at micromolar concentrations.
(§2) HeLa (human cervical carcinoma) and MCF-7 (human breast carcinoma) cell lines were cultured in Dulbecco’s Modified Eagles Medium (DMEM) supplemented with 2 mM L-glutamine (Lonza-Cambrex, Karlskoga, Sweden), 10% (v/v) heat inactivated fetal bovine serum (HIFBS) (Lonza-Cambrex) and 100 μg/mL streptomycin-100 IU/mL penicillin (Lonza-Cambrex) at 37 °C in humidified 95% air and 5% CO2. HT-29 (human colon carcinoma) cells were cultured at 37 °C in complete RPMI 1640 medium containing 2 mM L-glutamine, 10% (v/v) HIFBS and 100 μg/mL streptomycin-100 IU/mL penicillin in humidified 95% air and 5% CO2 atmosphere.
(§3) The effect of the different compounds on the proliferation of human cell lines was determined by using the MTT (3-[4,5-dimethylthiazol-2-yl]-2,5-diphenyltetrazolium bromide) reagent (MTT Thiazolyl Blue Tetrazolium Bromide, Sigma-Aldrich, St. Louis, MO, USA) dissolved in PBS 5 mg/mL. Cell viability was evaluated seeding 100 µL of cells in exponential growth phase with appropriate cell line concentration (1.5 × 10^4 HeLa and MCF-7 cells/mL and 3 × 10^4 HT-29 cells/mL) in complete medium in 96-well plates at 37 °C and 5% CO2. After 24 h incubation to allow cells to attach to the plates the ligands were added at different concentrations from 10^−5 to 10^−9 M. The effect on the proliferation was evaluated 72 h post-treatment by adding the MTT reagent (10 µL/well) to a final concentration of 0.5 mg/mL and the plate was further incubated for another 3 h. After this period, the supernatant was removed, the MTT violet crystals formed on the bottom of each well were dissolved in DMSO (100 µL/well) and subsequently, the absorbance of the color complex was read at 570 nm using a multi-well plate reader. Compounds were dissolved in dimethyl sulfoxide (DMSO) and the final solvent concentrations never exceeded 0.5% (v/v). The control wells included treated cells with 0.5% (v/v) DMSO and the positive control. Measurements were performed in triplicate, and each experiment was repeated three times. […] Nonlinear curves fitting the experimental data were carried out for each compound.
(Tetrazolium assays rely on reduction of a dye to a coloured formazan, in cell work by metabolically active cells.)

In data set [2] the test system is Bovine brain microtubule protein (MTP). Kind of data set: Tubulin polymerization inhibition assay (turbidimetry). Type of data set: biochemical. The note with it: 1.5 mg/mL MTP; IC50 calculated only if more than 50% inhibition at 20 µM; read-out: TPI IC50. As to the method:
Bovine brain microtubule protein (MTP) was isolated as previously described. Briefly, it was purified according to the modified Shelanski method by two cycles of temperature-dependent assembly/disassembly.
Tubulin polymerization was monitored using a Helios α spectrophotometer by measuring the increase in turbidity at 450 nm, caused by a shift from 4 °C to 37 °C, which allows the in vitro MTP self-disassembly and assembly respectively. […] Firstly, ligands at 20 µM concentration, were incubated with 1.5 mg/mL MTP at 20 °C for 30 min and subsequently cooled on ice for 10 min. Then, the experiment starts at 4 °C to establish the initial baseline. The assembly process was initiated by shifting of the temperature to 37 °C and the turbidity produced can be measured by an absorbance increase. After reaching a stable plateau, the temperature was switched back to 4 °C to return to the initial absorption values. The difference in amplitude between the stable plateau and the initial baseline of the curves was taken as the degree of tubulin polymerization for each experiment. […] All the measurements were carried out in at least two independent experiments using MTP from different isolation.

Data set [3] deals with HeLa, HT-29 and MCF-7 human tumor cell lines. The data set can be described thus: Antiproliferative activity over the three human tumor cell lines (MTT). Type of data set: cell-based. The conditions noted are these: range over the cell lines, Table S1, read-out: Cytotoxicity range (range of antiproliferative IC50 values). As for the experimental part:
as §1
The antiproliferative activity of the compounds against three human tumor cell lines of different origins (i.e., HeLa cervix epithelioid carcinoma, HT-29 colon adenocarcinoma and MCF-7 breast adenocarcinoma) was evaluated by the MTT method. […] This high success rate is the result of a combination of favorable scaffolds and substituents, and it is similar to those of previous reports on related series. […] We have previously observed the same trend for related compounds acting at the colchicine site of tubulin [10, 23]. For this pyridine series, we observed a different potency trend when we compare the 4-amino-3-pyridine and the 3-amino-4-pyridine derivatives. […] This different behavior is probably a reflection of their different shape, combined with the different geometries imposed by different bridges. We have previously shown that the potency ordering isocombretastatins similar to oximes higher than benzophenones could be explained by the higher conjugation of the ketones with the aromatic rings, which imposes a more planar disposition than those required for high affinity colchicine site binding. For the 3-amino-4-pyridine series, more planar structures are required in order to avoid the bumping of the amino substituents with tubulin out the plane of the aromatic ring, an effect which we have previously shown to impact the potency of 3-substituted indolecombretastatins and dimethylaminophenyl phenstatins. This different geometrical disposition of the amino substituents, and the different adaptability of their corresponding pockets in the two series, can also account for the preference of bulkier substituents at position 3, such as the pyrrolidine rather than the smaller dimethylamino. […] The opposite is observed for the 4-dimethylaminophenyl phenstatins 1a and 1b. […] The remarkable levels of solubility achieved for the quaternary ammonium salts came unfortunately at the expenses of biological activity.
The effect of the different compounds on the proliferation of human cell lines was determined by using the MTT (3-[4,5-dimethylthiazol-2-yl]-2,5-diphenyltetrazolium bromide) reagent (MTT Thiazolyl Blue Tetrazolium Bromide, Sigma-Aldrich, St. Louis, MO, USA) dissolved in PBS 5 mg/mL. Cell viability was evaluated seeding 100 µL of cells in exponential growth phase with appropriate cell line concentration (1.5 × 10^4 HeLa and MCF-7 cells/mL and 3 × 10^4 HT-29 cells/mL) in complete medium in 96-well plates at 37 °C and 5% CO2. After 24 h incubation to allow cells to attach to the plates the ligands were added at different concentrations from 10^−5 to 10^−9 M. The effect on the proliferation was evaluated 72 h post-treatment by adding the MTT reagent (10 µL/well) to a final concentration of 0.5 mg/mL and the plate was further incubated for another 3 h. […]

Data set [4] relates to MCF-7 breast adenocarcinoma. The data set can be described thus: MTT cell antiproliferative assay, MCF-7. Type of data set: cell-based. The note with it: Homo sapiens, MCF7, 72 h. As for the experimental part:
as §1, §2, §3

In the case of `COc1ccc(OC)c(C(=O)c2ccc(N(C)C)cc2)c1` [Compound 1e, (2,5-dimethoxyphenyl)(4-(dimethylamino)phenyl)methanone], the 50% inhibitory concentration (IC50) in data set [1] was above 1 µM; in data set [2] it was above 20 µM; in data set [3] (Homo sapiens), above 1 µM; in data set [4], above 1 µM.

With `COc1cc(C(=NO)c2ccc(N3CCCC3)nc2)cc(OC)c1OC` [Compound 2c, (6-(Pyrrolidin-1-yl)pyridin-3-yl)(3,4,5-trimethoxyphenyl)methanone oxime], the IC50 in data set [1] is above 1 µM; in data set [2], above 20 µM; in data set [4], above 1 µM.

Turning to `COc1ccc(OC)c(C(=NO)c2ccc(N(C)C)cc2)c1` [Compound 2e, (2,5-Dimethoxyphenyl)(4-(dimethylamino)phenyl)methanone oxime], the IC50 in data set [1] was above 1 µM; in data set [2] it was above 20 µM; in data set [4], above 1 µM.

`C=C(c1ccc(N(C)C)cc1)c1cc(OC)ccc1OC` [Compound 3e, 4-(1-(2,5-Dimethoxyphenyl)vinyl)-N,N-dimethylaniline]: the IC50 in data set [1] is above 1 µM; in data set [2], above 20 µM; in data set [3] (Homo sapiens), above 1 µM; in data set [4], above 1 µM.

For `COc1ccc(C(C)c2ccc(N(C)C)cc2)c(OC)c1OC` (stereo not shown) [Compound 4d, N,N-Dimethyl-4-(1-(2,3,4-trimethoxyphenyl)ethyl)aniline], the IC50 in data set [1] is above 1 µM; in data set [2], above 20 µM; in data set [3] (Homo sapiens), above 1 µM; in data set [4], above 1 µM.

For `COc1ccc(OC)c(C(C)c2ccc(N(C)C)cc2)c1` (stereo not shown) [Compound 4e, 4-(1-(2,5-Dimethoxyphenyl)ethyl)-N,N-dimethylaniline], the IC50 is above 1 µM in data set [1], above 20 µM in data set [2], above 1 µM in data set [3] (Homo sapiens) and above 1 µM in data set [4].

`COc1cc(C(C)c2cccc(N(C)C)c2)cc(OC)c1OC` (stereo not shown) [Compound 4f, N,N-Dimethyl-3-(1-(3,4,5-trimethoxyphenyl)ethyl)aniline]: the IC50 in data set [1] was above 1 µM; in data set [2], above 20 µM; in data set [3] (Homo sapiens), above 1 µM; in data set [4], above 1 µM.

For the molecule `COc1cc(C(=O)c2ccc([N+](C)(C)C)cc2)cc(OC)c1OC` [Compound 5a, N,N,N-Trimethyl-4-(3,4,5-trimethoxybenzoyl)benzenaminiumiodide], the 50% inhibitory concentration (IC50) in data set [1] was above 1 µM; in data set [2], above 20 µM; in data set [3] (Homo sapiens), above 1 µM; in data set [4] it was above 1 µM.

On to `COc1cc(C=Cc2ccc([N+]3(C)CCCC3)cc2)cc(OC)c1OC` [Compound 9i, 1-Methyl-1-(4-(3,4,5-trimethoxystyryl)phenyl)pyrrolidin-1-ium iodide], for which the IC50 in data set [1] and in data set [4] was above 1 µM throughout.

With `COc1cc(C(=NO)c2ccc(N3CCCC3)nc2)cc(OC)c1OC` [Compound E-2c, (6-(Pyrrolidin-1-yl)pyridin-3-yl)(3,4,5-trimethoxyphenyl)methanone oxime], the IC50 in data set [3] was above 1 µM.

For `COc1ccc(C(=NO)c2ccc(N(C)C)cc2)c(OC)c1OC` [Compound E-2d, (4-(Dimethylamino)phenyl)(2,3,4-trimethoxyphenyl)methanone oxime], the IC50 in data set [3] (Homo sapiens) lay within 0.277 to 0.677 µM.

Regarding `COc1ccc(OC)c(C(=NO)c2ccc(N(C)C)cc2)c1` [Compound E-2e, (2,5-Dimethoxyphenyl)(4-(dimethylamino)phenyl)methanone oxime], in data set [3] (Homo sapiens), the IC50 was above 1 µM.

With `COc1cc(C(=NO)c2cccc(N(C)C)c2)cc(OC)c1OC` [Compound E-2f, (3-(Dimethylamino)phenyl)(3,4,5-trimethoxyphenyl)methanone oxime], in data set [3] (Homo sapiens), the IC50 was above 1 µM.

Regarding `COc1cc(C(=NO)c2ccnc(N(C)C)c2)cc(OC)c1OC` [Compound E-2g, (2-(Dimethylamino)pyridin-4-yl)(3,4,5-trimethoxyphenyl)methanone oxime], the half-maximal inhibitory concentration (IC50) in data set [3] (Homo sapiens) fell in the range of 0.407 to 3.33 µM.

`COc1cc(C(=NO)c2ccc([N+](C)(C)C)cc2)cc(OC)c1OC` [Compound E-6a, 4-((Hydroxyimino)(3,4,5-trimethoxyphenyl)methyl)-N,N,N-trimethylbenzenaminium iodide]: the half-maximal inhibitory concentration (IC50) in data set [3] (Homo sapiens) was above 1 µM.

On to `COc1cc(C(=NO)c2ccc(N3CCCC3)nc2)cc(OC)c1OC` [Compound Z-2c, (6-(Pyrrolidin-1-yl)pyridin-3-yl)(3,4,5-trimethoxyphenyl)methanone oxime], for which, in data set [3] (heading: Cytotoxicity range), the IC50 was above 1 µM.

Regarding `COc1ccc(OC)c(C(=NO)c2ccc(N(C)C)cc2)c1` [Compound Z-2e, (2,5-Dimethoxyphenyl)(4-(dimethylamino)phenyl)methanone oxime], the IC50 in data set [3] was above 1 µM.

Regarding `COc1cc(C(=NO)c2cccc(N(C)C)c2)cc(OC)c1OC` [Compound Z-2f, (3-(Dimethylamino)phenyl)(3,4,5-trimethoxyphenyl)methanone oxime], in data set [3], the half-maximal inhibitory concentration (IC50) was above 1 µM.

As to `COc1cc(C(=NO)c2ccnc(N(C)C)c2)cc(OC)c1OC` [Compound Z-2g, (2-(Dimethylamino)pyridin-4-yl)(3,4,5-trimethoxyphenyl)methanone oxime], in data set [3], the 50% inhibitory concentration (IC50) lay in the range of 0.407 to 3.33 µM.

With `COc1cc(C(=NO)c2ccc([N+](C)(C)C)cc2)cc(OC)c1OC` [Compound Z-6a, 4-((Hydroxyimino)(3,4,5-trimethoxyphenyl)methyl)-N,N,N-trimethylbenzenaminium iodide], the 50% inhibitory concentration (IC50) in data set [3] is above 1 µM.
